Assay results as given in US8642601B2, “Inhibitors of JNK” (Roche Palo Alto LLC, priority 2010, dated 2014).
Counter-ions that a name gives are not always drawn.

Test system: T1, JNK
T1 construct: Human JNK2α2 assay contains 1 nM enzyme; Human JNK1α1 assay contains 2 nM enzyme
Experiment: JNK Assay in vitro (phosphorylation of GST-ATF2 (19-96) with [γ-33P] ATP)
Assay type: biochemical
Settings: JNK isoform not stated for Table 1 (method describes human JNK1α1, JNK2α2, JNK3); Km concentrations of ATP and substrate
Description: JNK activity was measured by phosphorylation of GST-ATF2 (19-96) with [γ-^33P] ATP. The enzyme reaction was conducted at Km concentrations of ATP and the substrate at final volume of 40 μl in buffer containing 25 mM HEPES, pH 7.5, 2 mM dithiothreitol, 150 mM NaCl, 20 mM MgCl2, 0.001% Tween® 20, 0.1% BSA and 10% DMSO. Human JNK2α2 assay contains 1 nM enzyme, 1 μM ATF2, 8 μM ATP with 1 uCi [γ-^33P] ATP. Human JNK1α1 assay contains 2 nM enzyme, 1 μM ATF2, 6 μM ATP with 1 μCi [γ-^33P] ATP. Human JNK3 (Upstate Biotech #14-501M) assay contains 2 nM enzyme, 1 μM ATF2, 4 μM ATP with 1 μCi [γ-^33P] ATP. The enzyme assay was carried out in the presence or absence of several compound concentrations. JNK and compound were pre-incubated for 10 min., followed by initiation of the enzymatic reaction by adding ATP and the substrate. The reaction mixture was incubated at 30° C. for 30 min. At the end of incubation, the reaction was terminated by transferring 25 μl of the reaction mixture to 150 μl of 10% glutathione Sepharose® slurry (Amersham #27-4574-01) containing 135 mM EDTA. The reaction product was captured on the affinity resin, and washed on a filtration plate (Millipore, MABVNOB50) with phosphate buffered saline for six times to remove free radionucleotide. The incorporation of ^33P into ATF2 was quantified on a microplate scintillation counter (Packard Topcount). Compound inhibition potency on JNK was measured by IC50 value generated from ten concentration inhibition curves fitted into the 3-parameter model: % inhibition=Maximum/(1+(IC50/[Inhibitor])^slope). Data were analyzed on Microsoft Excel for parameter estimation.

Compound	IC50 [µM]
CCCN1CCC[C@H](NC(=O)[C@H]2CC[C@H](Nc3nccc(-n4ccc5c(OCCCS(C)(=O)=O)cccc54)n3)CC2)C1 (stereo in doubt) [Compound 14, 4-{4-[4-(3-Methanesulfonyl-propoxy)-indol-1-yl]-pyrimidin-2-ylamino}-cyclohexanecarboxylic acid ((R)-1-propyl-piperidin-3-yl)-amide]	0.0898
CCN1CCC[C@@H](NC(=O)[C@H]2CC[C@H](Nc3nccc(-n4ccc5c(OCCCS(C)(=O)=O)cccc54)n3)CC2)C1 (stereo in doubt) [Compound 17, 4-{4-[4-(3-Methanesulfonyl-propoxy)-indol-1-yl]-pyrimidin-2-ylamino}-cyclohexanecarboxylic acid ((S)-1-ethyl-piperidin-3-yl)-amide]	0.116
CCOC(=O)[C@@H]1CCCN(C(=O)[C@H]2CC[C@H](Nc3nccc(-n4ccc5c(OCCCS(C)(=O)=O)cccc54)n3)CC2)C1 [Compound 2, (R)-1-(4-{4-[4-(3-Methanesulfonyl-propoxy)-indol-1-yl]-pyrimidin-2-ylamino}-cyclohexanecarbonyl)-piperidine-3-carboxylic acid ethyl ester]	0.0734
CCN1CCN(C(=O)[C@H]2CC[C@H](Nc3nccc(-n4ccc5c(OCC6CCS(=O)(=O)C6)cccc54)n3)CC2)C[C@H]1C (stereo partly drawn) [Compound 3, (4-{4-[4-(1,1-Dioxo-tetrahydro-1λ^6-thiophen-3-ylmethoxy)-indol-1-yl]-pyrimidin-2-ylamino}-cyclohexyl)-((R)-4-ethyl-3-methyl-piperazin-1-yl)-methanone]	0.0459
CCN1CCN(C(=O)[C@H]2CC[C@H](Nc3nccc(-n4ccc5c(OCC6CCS(=O)(=O)C6)cccc54)n3)CC2)C[C@@H]1C (stereo partly drawn) [Compound 9, (4-{4-[4-(1,1-Dioxo-tetrahydro-1λ^6-thiophen-3-ylmethoxy)-indol-1-yl]-pyrimidin-2-ylamino}-cyclohexyl)-((S)-4-ethyl-3-methyl-piperazin-1-yl)-methanone]	0.0194
CCCN1CC[C@@H](NC(=O)[C@H]2CC[C@H](Nc3nccc(-n4ccc5c(OCCCS(C)(=O)=O)cccc54)n3)CC2)C1 [Compound 11, 4{4-[4-(3-Methanesulfonyl-propoxy)-indol-1-yl]-pyrimidin-2-ylamino}-cyclohexanecarboxylic acid ((R)-1-propyl-pyrrolidin-3-yl)-amide]	0.164
CCN1CC[C@H](NC(=O)[C@H]2CC[C@H](Nc3nccc(-n4ccc5c(OCCCS(C)(=O)=O)cccc54)n3)CC2)C1 [Compound 13, 4-{4-[4-(3-Methanesulfonyl-propoxy)-indol-1-yl]-pyrimidin-2-ylamino}-cyclohexanecarboxylic acid ((S)-1-ethyl-pyrrolidin-3-yl)-amide]	0.336
CN(CC1CCCCN1C)C(=O)[C@H]1CC[C@H](Nc2nccc(-n3ccc4c(OCCCS(C)(=O)=O)cccc43)n2)CC1 (some centres unmarked) [Compound 19, 4-{4-[4-(3-Methanesulfonyl-propoxy)-indol-1-yl]-pyrimidin-2-ylamino}-cyclohexanecarboxylic acid methyl-(1-methyl-piperidin-2-ylmethyl)-amide]	0.0796
CCN1CCCC1CNC(=O)[C@H]1CC[C@H](Nc2nccc(-n3ccc4c(OCCCS(C)(=O)=O)cccc43)n2)CC1 (some centres unmarked) [Compound 20, 4-{4-[4-(3-Methanesulfonyl-propoxy)-indol-1-yl]-pyrimidin-2-ylamino}-cyclohexanecarboxylic acid (1-ethyl-pyrrolidin-2-ylmethyl)-amide]	0.081
CS(=O)(=O)CCCOc1cccc2c1ccn2-c1ccnc(N[C@H]2CC[C@H](C(=O)N3C[C@@H]4C[C@@H]3CN4)CC2)n1 [Compound 21, (1R,4S)-2,5-Diaza-bicyclo[2.2.1]hept-2-yl-(4-{4-[4-(3-methanesulfonyl-propoxy)-indol-1-yl]-pyrimidin-2-ylamino}-cyclohexyl)-methanone]	0.145
CN1C2CCC1CN(C(=O)[C@H]1CC[C@H](Nc3nccc(-n4ccc5c(OCCCS(C)(=O)=O)cccc54)n3)CC1)C2 [Compound 22]	0.0998
C[C@@H]1CN(C(=O)[C@H]2CC[C@H](Nc3nccc(-n4ncc5c(OCCCS(C)(=O)=O)cccc54)n3)CC2)CCN1 [Compound 24, (4-{4-[4-(3-Methanesulfonyl-propoxy)-indazol-1-yl]-pyrimidin-2-ylamino}-cyclohexyl)-((R)-3-methyl-piperazin-1-yl)-methanone]	0.0597
C[C@H]1CN(C(=O)[C@H]2CC[C@H](Nc3nccc(-n4ncc5c(OCC6CCS(=O)(=O)C6)cccc54)n3)CC2)CCN1 (stereo partly drawn) [Compound 25, (4-{4-[4-(1,1-Dioxo-tetrahydro-1λ^6-thiophen-3-ylmethoxy)-indazol-1-yl]-pyrimidin-2-ylamino}-cyclohexyl)-((S)-3-methyl-piperazin-1-yl)-methanone]	0.0458
CCOC1CC2CCC(C1)N2C(=O)[C@H]1CC[C@H](Nc2nccc(-n3ccc4c(OCCCS(C)(=O)=O)cccc43)n2)CC1 (some centres unmarked) [Compound 26, (3-Ethoxy-8-aza-bicyclo[3.2.1]oct-8-yl)-(4-{4-[4-(3-methanesulfonyl-propoxy)-indol-1-yl]-pyrimidin-2-ylamino}-cyclohexyl)-methanone; compound with formic acid]	0.0894
C[C@H]1CN(C(=O)[C@H]2CC[C@H](Nc3nccc(-n4ncc5c(OCC6CCS(=O)(=O)C6)cccc54)n3)CC2)CCN1 (stereo partly drawn) [Compound 27, (4-{4-[4-(1,1-Dioxo-tetrahydro-1λ^6-thiophen-3-ylmethoxy)-indazol-1-yl]-pyrimidin-2-ylamino}-cyclohexyl)-((S)-3-methyl-piperazin-1-yl)-methanone]	0.0606
CC1(C)CN(C(=O)[C@H]2CC[C@H](Nc3nccc(-n4ccc5c(OCC6CCS(=O)(=O)C6)cccc54)n3)CC2)CCN1 (some centres unmarked) [Compound 28, (3,3-Dimethyl-piperazin-1-yl)-(4-{4-[4-(1,1-dioxo-tetrahydro-1λ^6-thiophen-3-ylmethoxy)-indol-1-yl]-pyrimidin-2-ylamino}-cyclohexyl)-methanone]	0.0978
CCN1CCCC(NC(=O)[C@H]2CC[C@H](Nc3nccc(-n4ccc5c(OCC6CCS(=O)(=O)C6)cccc54)n3)CC2)C1 (some centres unmarked) [Compound 29, 4-{4-[4-(1,1-Dioxo-tetrahydro-1λ^6-thiophen-3-ylmethoxy)-indol-1-yl]-pyrimidin-2-ylamino}-cyclohexanecarboxylic acid (1-ethyl-piperidin-3-yl)-amide]	0.0928
CCN1CCC[C@H]1CNC(=O)[C@H]1CC[C@H](Nc2nccc(-n3ccc4c(OCCCS(C)(=O)=O)cccc43)n2)CC1 [Compound 30, 4-{4-[4-(3-Methanesulfonyl-propoxy)-indol-1-yl]-pyrimidin-2-ylamino}-cyclohexanecarboxylic acid ((S)-1-ethyl-pyrrolidin-2-ylmethyl)-amide]	0.0854
CCN1CCC[C@@H]1CNC(=O)[C@H]1CC[C@H](Nc2nccc(-n3ccc4c(OCCCS(C)(=O)=O)cccc43)n2)CC1 [Compound 31, 4-{4-[4-(3-Methanesulfonyl-propoxy)-indol-1-yl]-pyrimidin-2-ylamino}-cyclohexanecarboxylic acid ((R)-1-ethyl-pyrrolidin-2-ylmethyl)-amide]	0.0977

Test system: not given
Experiment: not given
Settings: not given

Compound	melting point [°C]
CCN1CCN(C(=O)[C@H]2CC[C@H](Nc3nccc(-n4ccc5c(OCC6CCS(=O)(=O)C6)cccc54)n3)CC2)C[C@H]1C (stereo partly drawn) (as salt: HCl) [Compound 3, (4-{4-[4-(1,1-Dioxo-tetrahydro-1λ^6-thiophen-3-ylmethoxy)-indol-1-yl]-pyrimidin-2-ylamino}-cyclohexyl)-((R)-4-ethyl-3-methyl-piperazin-1-yl)-methanone]	225
CCN1CCN(C(=O)[C@H]2CC[C@H](Nc3nccc(-n4ccc5c(OCC6CCS(=O)(=O)C6)cccc54)n3)CC2)C[C@@H]1C (stereo partly drawn) (as salt: HCl) [Compound 9, (4-{4-[4-(1,1-Dioxo-tetrahydro-1λ^6-thiophen-3-ylmethoxy)-indol-1-yl]-pyrimidin-2-ylamino}-cyclohexyl)-((S)-4-ethyl-3-methyl-piperazin-1-yl)-methanone]	198 to 204
CCCN1CC[C@@H](NC(=O)[C@H]2CC[C@H](Nc3nccc(-n4ccc5c(OCCCS(C)(=O)=O)cccc54)n3)CC2)C1 (as salt: HCl) [Compound 11, 4{4-[4-(3-Methanesulfonyl-propoxy)-indol-1-yl]-pyrimidin-2-ylamino}-cyclohexanecarboxylic acid ((R)-1-propyl-pyrrolidin-3-yl)-amide]	140 to 142
CCN1CC[C@H](NC(=O)[C@H]2CC[C@H](Nc3nccc(-n4ccc5c(OCCCS(C)(=O)=O)cccc54)n3)CC2)C1 (as salt: HCl) [Compound 13, 4-{4-[4-(3-Methanesulfonyl-propoxy)-indol-1-yl]-pyrimidin-2-ylamino}-cyclohexanecarboxylic acid ((S)-1-ethyl-pyrrolidin-3-yl)-amide]	160 to 162
